Experimental data taken from US11892435B2, “NMR methods for measuring pH in oral care, home care and personal care products” (Colgate-Palmolive Company, priority 2018, dated 2024).

Assay: 13C NMR pH titration of sodium lactate/lactic acid solutions, nonlinear least squares fit of Equation 5
Type: physicochemical
Conditions: carboxyl group of lactic acid, about 1 weight % sodium lactate and lactic acid, pH about 2 to about 5.5, fit of 13C chemical shift vs pH
Description: In at least one implementation, the chemical species or molecular or molecular entity may be or include a carboxyl group, such as the carboxyl group of a lactic acid, where the observed C-13 chemical shift can be expressed according to equation (5): pH=pKa+log [(δC−δCO2H)/(δCO2^−−δC)] (5)
A calibration curve was prepared for measuring lactic acid with an NMR by using standardized buffered solutions of sodium lactate and lactic acid at different mole ratios in water at varying pH. The solutions included a total concentration of sodium lactate and lactic acid at about 1 weight %, and the pH was varied from a pH of about 2 to about 5.5. NMR was performed on the samples to obtain C-13 chemical shift values. A pH electrode was utilized to measure the pH of each of the standardized samples, and the calibration curve was prepared by correlating the measured C-13 chemical shift to the pH values measured by the pH electrode, as illustrated in FIG. 4. As such, the observed ^13C chemical shift of the carbonyl group (δC) was expressed as the weighted average of the ^13C chemical shift between CO2H (δCO2H) and CO2^−(δCO2^−). The pH of the carboxyl group was described in terms of pKa of the carboxyl group, as represented by Equation 5. pH=pKa+log [(δC−δCO2H)/(δCO2^−−δC)] (5)
The nonlinear least squares fit was applied to determine the values of the pKa, the δCO2^−, and the δCO2H.

- pKa: 3.73
Structure (SMILES): CC(O)C(=O)O (stereo not shown) [lactic acid]
